Measurements from PubChem BioAssay (NCI).
Where “and” joins values, the source holds several entries; their conditions need not be identical. Equal values may be shown once.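 Five concentrations, 48 hours, 96-well plates. GI50: concentration for 50% inhibition of growth. The concentration for full growth arrest is given as TGI.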

Experiments:
Assay in all cases: DTP human tumour cell line panel, 48 h
MDA-N = test system: MDA-N
DLD-1 colon = test system: DLD-1 colon
DMS 273 small cell lung = test system: DMS 273 small cell lung
HOP-18 NSCLC = test system: HOP-18 NSCLC
KM20L2 colon = test system: KM20L2 colon
M19-MEL melanoma = test system: M19-MEL melanoma
RXF-631 renal = test system: RXF-631 renal
XF 498 CNS = test system: XF 498 CNS
SNB-78 CNS = test system: SNB-78 CNS

## CC(C(N)C(=O)NC(C(=O)O)C1OC(n2ccc(=O)[nH]c2=O)C(O)C1O)C(O)c1ccc(O)cn1 (stereo unspecified)
MDA-N
  TGI: > 100 µM

## O=C1C2CCN(CC2)C1(CO)CO
MDA-N
  TGI: > 100 µM

## O=C(CCn1[nH]c(=O)c(Cl)c(Cl)c1=O)NNC(=O)C[n+]1ccccc1
DLD-1 colon
  TGI: > 100 µM
DMS 273 small cell lung
  TGI: > 100 µM
HOP-18 NSCLC
  TGI: > 100 µM
KM20L2 colon
  TGI: > 100 µM
M19-MEL melanoma
  TGI: > 100 µM
RXF-631 renal
  TGI: > 100 µM
XF 498 CNS
  TGI: > 100 µM

## CN(Cc1cc(Br)cc(Br)c1O)Cc1c(O)ccc2ccccc12
MDA-N
  TGI: 39.9 µM

## CCCCCCCCCC(=O)OCC1OC(n2cc(F)c(=O)[nH]c2=O)C(NC(=O)OCc2ccccc2)C(OC(=O)CCCCCCCCC)C1O (stereo unspecified)
DMS 273 small cell lung
  TGI: > 100 µM
M19-MEL melanoma
  TGI: > 100 µM

## C[N+](C)(C)CC(=O)N/N=C(\C(=O)NC1=C(Cl)C(=O)c2ccccc2C1=O)C(C#N)c1nc(-c2ccc([N+](=O)[O-])cc2)cs1 (stereo unspecified)
DLD-1 colon
  TGI: 29.5 µM
DMS 273 small cell lung
  TGI: 33.7 µM
HOP-18 NSCLC
  TGI: 18 µM
KM20L2 colon
  TGI: 42.5 µM
M19-MEL melanoma
  TGI: 2.2 µM
MDA-N
  TGI: 3.2 µM
SNB-78 CNS
  TGI: 48.2 µM
XF 498 CNS
  TGI: 21.1 µM

## C=C1CC2CC(O)CC(C1)C2 (stereo unspecified)
DLD-1 colon
  TGI: > 100 µM
DMS 273 small cell lung
  TGI: > 100 µM
HOP-18 NSCLC
  TGI: > 100 µM
KM20L2 colon
  TGI: > 100 µM
M19-MEL melanoma
  TGI: > 100 µM
SNB-78 CNS
  TGI: > 100 µM
XF 498 CNS
  TGI: > 100 µM

## CSc1snc2sc3c(Cl)nnnc3c12
DLD-1 colon
  TGI: 22.7 µM
DMS 273 small cell lung
  TGI: 23.9 µM
HOP-18 NSCLC
  TGI: 33.9 µM
KM20L2 colon
  TGI: 30.9 µM
M19-MEL melanoma
  TGI: 24.1 µM
RXF-631 renal
  TGI: 38.4 µM
SNB-78 CNS
  TGI: 38.1 µM
XF 498 CNS
  TGI: 27.4 µM

## O=C(CC(=O)c1cccc2ccccc12)C(=O)NC1C2CC3CC(C2)CC1C3 (stereo unspecified)
DLD-1 colon
  TGI: > 100 µM
DMS 273 small cell lung
  TGI: > 100 µM
HOP-18 NSCLC
  TGI: > 100 µM
KM20L2 colon
  TGI: > 100 µM
M19-MEL melanoma
  TGI: > 100 µM
RXF-631 renal
  TGI: > 100 µM
SNB-78 CNS
  TGI: > 100 µM
XF 498 CNS
  TGI: > 100 µM

## CCCCCCCCCCCCCCCCCCOCC(CCP(=O)(CP(=O)(O)O)Oc1ccccc1)OCCCCCCCCCCCCCCCCCC (stereo unspecified)
MDA-N
  TGI: > 100 µM

## Nc1n[n+](-c2ccccc2)no1
DLD-1 colon
  TGI: > 100 µM
DMS 273 small cell lung
  TGI: > 100 µM
KM20L2 colon
  TGI: > 100 µM
M19-MEL melanoma
  TGI: > 100 µM
SNB-78 CNS
  TGI: > 100 µM

## CC(=O)O[C@@]1(C)[C@@H](C)C(=O)O[C@@H]2CCN3CC=C(COC(=O)[C@]1(C)O)[C@H]23
DLD-1 colon
  TGI: > 100 µM
DMS 273 small cell lung
  TGI: > 100 µM
KM20L2 colon
  TGI: > 100 µM
M19-MEL melanoma
  TGI: > 100 µM

## COc1ccc2oc(C(=O)O)c3c2c1CCC3CCC(=O)O (stereo unspecified)
DLD-1 colon
  TGI: > 100 µM
DMS 273 small cell lung
  TGI: > 100 µM
M19-MEL melanoma
  TGI: > 100 µM
RXF-631 renal
  TGI: > 100 µM
SNB-78 CNS
  TGI: > 100 µM
XF 498 CNS
  TGI: > 100 µM

## CCOC(=O)c1cnc2sc3ccc4ccccc4c3n2c1=O
DLD-1 colon
  TGI: > 100 µM
DMS 273 small cell lung
  TGI: > 100 µM
HOP-18 NSCLC
  TGI: > 100 µM
KM20L2 colon
  TGI: > 100 µM
M19-MEL melanoma
  TGI: > 100 µM
RXF-631 renal
  TGI: > 100 µM
SNB-78 CNS
  TGI: > 100 µM

## COc1cc(C2=N/C(=C/c3cccs3)C(=O)O2)cc(OC)c1OC
MDA-N
  TGI: > 100 µM

## O=C(N/N=C1\C(=O)N(c2nccs2)C(=O)C(=O)C1c1nc2ccccc2s1)c1ccccc1O (stereo unspecified)
DLD-1 colon
  TGI: > 100 µM
DMS 273 small cell lung
  TGI: > 100 µM
HOP-18 NSCLC
  TGI: 77.4 µM
KM20L2 colon
  TGI: > 100 µM
M19-MEL melanoma
  TGI: > 100 µM
SNB-78 CNS
  TGI: > 100 µM
XF 498 CNS
  TGI: > 100 µM

## Cc1[nH]c(=O)[nH]c1C(=O)c1ccc(-n2ccnc2)cc1
DLD-1 colon
  TGI: > 100 µM
DMS 273 small cell lung
  TGI: > 100 µM
KM20L2 colon
  TGI: > 100 µM
M19-MEL melanoma
  TGI: > 100 µM

## N#CC1(C#N)C2C=CC(c3coc4cccc2c34)C1(C#N)C#N (stereo unspecified)
DLD-1 colon
  TGI: 4.17 µM
DMS 273 small cell lung
  TGI: 31.6 µM
HOP-18 NSCLC
  TGI: 30.4 µM
KM20L2 colon
  TGI: 35.5 µM
M19-MEL melanoma
  TGI: 8.86 µM
SNB-78 CNS
  TGI: 43.1 µM
XF 498 CNS
  TGI: 15.3 µM

## CC(C)=CCC/C(C)=C\CCC1(C)OC(=O)C2CC21 (stereo unspecified)
MDA-N
  GI50: > 100 µM and 23.8 µM
  TGI: > 100 µM and 85.1 µM

## CCc1cc(CCC(=O)Nc2ccccc2[N+](=O)[O-])[nH]c(=S)n1
DLD-1 colon
  TGI: > 100 µM
HOP-18 NSCLC
  TGI: > 100 µM
KM20L2 colon
  TGI: > 100 µM
M19-MEL melanoma
  TGI: > 100 µM
RXF-631 renal
  TGI: > 100 µM
SNB-78 CNS
  TGI: > 100 µM

## Cn1c(N)nc(=O)c2c1N(C1OC(CO)C(O)C1O)CN2Cc1ccccc1 (stereo unspecified)
DLD-1 colon
  TGI: > 100 µM
DMS 273 small cell lung
  TGI: > 100 µM
HOP-18 NSCLC
  TGI: > 100 µM
KM20L2 colon
  TGI: > 100 µM
M19-MEL melanoma
  TGI: > 100 µM
RXF-631 renal
  TGI: > 100 µM
SNB-78 CNS
  TGI: > 100 µM
XF 498 CNS
  TGI: > 100 µM

## C=C1C(OC(=O)/C=C/c2ccccc2)CC(OC(C)=O)C2(C)C1CC1CC(OC(C)=O)C(C)=C(C(OC(C)=O)C2OC(C)=O)C1(C)C (stereo unspecified)
DMS 273 small cell lung
  TGI: > 100 µM
HOP-18 NSCLC
  TGI: > 100 µM
KM20L2 colon
  TGI: > 100 µM
M19-MEL melanoma
  TGI: > 100 µM
RXF-631 renal
  TGI: > 100 µM
SNB-78 CNS
  TGI: > 100 µM

## COc1ccc(/C=C2\CCC(CCN(C)C)(C3=CCCC3)C2=O)cc1Br (stereo unspecified)
DLD-1 colon
  TGI: 16.4 µM
DMS 273 small cell lung
  TGI: 14.6 µM
HOP-18 NSCLC
  TGI: 25.2 µM
KM20L2 colon
  TGI: 3.56 µM
M19-MEL melanoma
  TGI: 7.86 µM
RXF-631 renal
  TGI: 31.1 µM
SNB-78 CNS
  TGI: 30.4 µM
XF 498 CNS
  TGI: 8.72 µM

## O=C(O/N=C1/CCC/C1=C\c1ccccc1)c1ccc(Cl)c(Cl)c1
DLD-1 colon
  TGI: > 100 µM
DMS 273 small cell lung
  TGI: > 100 µM
HOP-18 NSCLC
  TGI: > 100 µM
KM20L2 colon
  TGI: > 100 µM
M19-MEL melanoma
  TGI: > 100 µM
RXF-631 renal
  TGI: > 100 µM
SNB-78 CNS
  TGI: > 100 µM

## CCOC(=O)c1cnc2c(ccc3ncccc32)c1NCCCN(CC)CC
DLD-1 colon
  TGI: > 100 µM
DMS 273 small cell lung
  TGI: > 100 µM
HOP-18 NSCLC
  TGI: > 100 µM
KM20L2 colon
  TGI: > 100 µM
M19-MEL melanoma
  TGI: > 100 µM
SNB-78 CNS
  TGI: > 100 µM
XF 498 CNS
  TGI: > 100 µM

## COC(=O)C12OCC34C(CC5C(C)C6=CC(=O)OC6=CC5(C)C3C(O)C1O)OC(=O)C(O)C24 (stereo unspecified)
DMS 273 small cell lung
  GI50: 0.0707 µM
  TGI: 0.528 µM and 0.359 µM
HOP-18 NSCLC
  GI50: 0.929 µM
KM20L2 colon
  GI50: 0.638 µM
  TGI: 30.9 µM
M19-MEL melanoma
  GI50: 0.133 µM
  TGI: 0.723 µM and 2.2 µM
SNB-78 CNS
  GI50: 0.402 µM
  TGI: 8.31 µM
XF 498 CNS
  GI50: 0.0609 µM and 0.344 µM
  TGI: 0.291 µM and 1.93 µM

## O=C1OC(=O)C2CCCC3CCCC1C32 (stereo unspecified)
MDA-N
  TGI: > 100 µM

## CCOC(=O)C(CC/C=C\c1ccccc1)N1CCC[C@H]1C(=O)OC (stereo partly specified)
DLD-1 colon
  TGI: > 100 µM
DMS 273 small cell lung
  TGI: > 100 µM
HOP-18 NSCLC
  TGI: > 100 µM
KM20L2 colon
  TGI: > 100 µM
M19-MEL melanoma
  TGI: > 100 µM
SNB-78 CNS
  TGI: > 100 µM
XF 498 CNS
  TGI: > 100 µM

## Cc1cccc2c1CCC21OC(=O)c2c1ccc1ccccc21 (stereo unspecified)
DLD-1 colon
  TGI: > 100 µM
DMS 273 small cell lung
  TGI: 91.5 µM
HOP-18 NSCLC
  TGI: > 100 µM
KM20L2 colon
  TGI: > 100 µM
M19-MEL melanoma
  TGI: > 100 µM
RXF-631 renal
  TGI: 50.2 µM

## C/C(=N\NC(=S)SCc1ccccc1)c1ccccn1
MDA-N
  TGI: 15.3 µM

## O=C1C2C(C(=O)N1c1ccccc1)C1([N+](=O)[O-])C=C3c4ccccc4N(C(=O)c4ccccc4)C32C2C(=O)N(c3ccccc3)C(=O)C21 (stereo unspecified)
DLD-1 colon
  TGI: > 100 µM
DMS 273 small cell lung
  TGI: > 100 µM
M19-MEL melanoma
  TGI: > 100 µM
RXF-631 renal
  TGI: > 100 µM
SNB-78 CNS
  TGI: > 100 µM
XF 498 CNS
  TGI: > 100 µM

## O=NNc1ccc(Sc2ccc(NN=O)cn2)nc1
MDA-N
  TGI: > 100 µM

## Cc1cccc(C(C)(C)C)c1NC(=O)CCc1nc(=S)[nH][nH]1
DLD-1 colon
  TGI: > 100 µM
DMS 273 small cell lung
  TGI: > 100 µM
KM20L2 colon
  TGI: > 100 µM
M19-MEL melanoma
  TGI: > 100 µM
RXF-631 renal
  TGI: > 100 µM
SNB-78 CNS
  TGI: > 100 µM
XF 498 CNS
  TGI: > 100 µM

## CN(C)CCNC(=O)Cn1cnc2cccc([N+](=O)[O-])c2c1=O
MDA-N
  TGI: > 100 µM

## CC(C)(C)c1ccc(OCCOCCOc2ccc(C(C)(C)C)cc2S(=O)(=O)Nc2ccc([N+](=O)[O-])cc2)c(S(=O)(=O)Nc2ccc([N+](=O)[O-])cc2)c1
DLD-1 colon
  TGI: > 100 µM
DMS 273 small cell lung
  TGI: > 100 µM
HOP-18 NSCLC
  TGI: > 100 µM
M19-MEL melanoma
  TGI: > 100 µM
RXF-631 renal
  TGI: > 100 µM
SNB-78 CNS
  TGI: > 100 µM
